Reference: PubChem BioAssay (NCI)
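Briefly, cells in 96-well plates were exposed to five compound concentrations for 48 h, and endpoints were estimated by linear interpolation. At the GI50, growth is halved. TGI: concentration producing complete growth inhibition.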

Assays:
Test in all cases: NCI anticancer screen, dose series, 48 h
BT-549 breast = system: BT-549 breast
DU-145 prostate = system: DU-145 prostate
HL-60(TB) leukemia = system: HL-60(TB) leukemia
HS 578T breast = system: HS 578T breast
IGROV1 ovarian = system: IGROV1 ovarian
NCI-H226 lung = system: NCI-H226 lung
SF-539 CNS = system: SF-539 CNS
TK-10 renal = system: TK-10 renal
KM20L2 colon = system: KM20L2 colon
M19-MEL melanoma = system: M19-MEL melanoma

Row | Structure (SMILES) | GI50 (BT-549 breast) [µM] | TGI (BT-549 breast) [µM] | GI50 (DU-145 prostate) [µM] | TGI (DU-145 prostate) [µM] | GI50 (HL-60(TB) leukemia) [µM] | TGI (HL-60(TB) leukemia) [µM] | GI50 (HS 578T breast) [µM] | TGI (HS 578T breast) [µM] | GI50 (IGROV1 ovarian) [µM] | TGI (IGROV1 ovarian) [µM] | GI50 (NCI-H226 lung) [µM] | TGI (NCI-H226 lung) [µM] | GI50 (SF-539 CNS) [µM] | TGI (SF-539 CNS) [µM] | GI50 (TK-10 renal) [µM] | TGI (TK-10 renal) [µM] | TGI (KM20L2 colon) [µM] | TGI (M19-MEL melanoma) [µM]
1 | COc1ccc(Cc2cnc(NC(=O)c3ccc4c(c3)OCCO4)s2)cc1 | 0.0357 | > 49.5 | 0.037 | > 41.1 | 0.0409 | > 100 | 0.0311 | > 76 | 0.0485 | > 55.2 | 1.72 | 88.5 | 0.0257 | 0.714 | 0.406 | 35.3 |  | 
2 | COc1cc(C(=O)N2CCc3c([nH]c4c([N+](=O)[O-])c(OC)ccc34)C2C)cc(OC)c1OC (stereo unspecified) |  |  |  |  |  | > 100 |  |  |  | 22.3 |  | > 100 |  | > 100 |  | > 100 | > 100 | 
3 | CC1=C(c2cc(C(=O)Nc3ccc(Cl)cc3)nc(=S)[nH]2)Sc2ccccc2N1 |  |  |  |  |  | > 100 |  |  |  | > 100 |  |  |  | > 100 |  | > 100 | > 100 | > 100
4 | CC[C@@]1(O)C(=O)OCc2c1cc1n(c2=O)Cc2c-1nc1cc(F)c(C)c3c1c2[C@@H](N)CC3 | < 0.01 | 0.199 | < 0.01 | > 100 | < 0.01 |  | 0.735 | > 100 | 0.0162 | 1.59 | < 0.01 | 0.0358 | < 0.01 | 0.0187 | 0.0725 |  |  | 
5 | COC(=O)c1cc(/C=C/c2ccc(S(N)(=O)=O)cc2)ccc1O | 16.3 | 56.2 | 15.9 | > 100 | > 100 | > 100 | 29.7 | 72.1 | 25.7 | > 100 | 21.4 | 52.9 | 18.4 | 47.4 | 28.1 | > 100 |  | 
6 | C[C@]12CC[C@@H]3c4ccc(O)c([N+](=O)[O-])c4CC[C@H]3[C@@H]1CC[C@@H]2NS(=O)(=O)c1cccc(Br)c1 | 1.91 | 3.93 | 3.6 | 12.4 | 2.4 | 6.04 | 2.23 | 6 | 3.22 | 9.35 | 2.9 | 8.53 | 1.55 | 3.24 | 2.92 | 8.98 |  | 
7 | CC1C(=O)OC2CC[N+]3([O-])CC=C(COC(=O)C(C)(O)C1(C)O)C23 (stereo unspecified) |  | > 100 |  | > 100 |  | > 100 |  | > 100 |  | > 100 |  | > 100 |  | > 100 |  | > 100 |  | 
8 | O/C(=C\c1nc2ccccc2nc1NC12CC3CC(CC(C3)C1)C2)c1ccc(Br)cc1 |  | > 10 |  | > 10 |  | > 10 |  | > 10 |  | > 10 |  | > 10 |  | > 10 |  | > 10 |  | 
9 | O=C(Nc1ccc(Cl)c(Cl)c1)Nc1ccccc1O | 24.9 | 91.3 | 9.75 | 31.1 | 3.7 | 36.2 | 6.69 | 37.5 | 6.48 | 29.3 | 15.9 | 53.7 | 12.4 | 30.4 | 6.41 | 28 |  | 
